# Experimental data: patent US20250316381A1, “Assessment of Relative Quantitative Effect of Somatic Point Mutations at the Individual Tumor Level for Prioritization” (Hadasit Medical Research Services and Development Ltd., priority 2022, published 2025)
# Key:
# [1] = tested on: human cancer cell lines; experiment: GDSC2 IC50 drug screening of cancer cell lines, divided by cancer gene TVA sub-groups; type: cell-based; conditions: except for two cell lines in "Strong Drivers" group
# Text: Bulk data of “IC50s Drug Screening” was obtained from Genomics of Drug Sensitivity in Cancer website. Bulk mutation data for cell lines was obtained from Cell Model Passports website.
# The analysis was focused on pairs of drugs and genetic alterations that met the following criteria in GDSC's database: (i) drug response associated with a cancer gene variant (ii) at least 50 cell lines harboring the cancer gene alteration (iii) effect size above 0.7 (above 0.5 indicates a moderate effect size and above 1 indicates a large effect size) (iv) drug-gene association is statistically significant (false discovery rate (FDR) p-value<0.1) and (v) the drug effect on the mutated protein of associated pathways can explain the association.
# For comparison of response to drugs between genes variants' TVA values, samples were binned according to their gene variant TVA score and according to appearance in the drivers' binomial catalogue. Non-drivers were defined as variants absent from the binomial catalogue with TVA≤1.5. This larger TVA value for variants not in the catalog enlarges the number of variants in the non-driver group. […]
# Rare pathogenic variants are becoming important in the inter-individual variability in drug response. […] Genomic features and drug response associations were analyzed from GDCS's analysis of variance model that met certain criteria (see Materials and Methods). […]
# [2] = tested on: human cancer cell lines; conditions: GDSC2; BRAF variants, "Very Strong Drivers" group (includes V600E class I variant) versus all other groups; cited from earlier work
SMILES,association of TVA's sub-groups of BRAF variants with drug response [1],IC50 of cancer cell lines [2]
CC(C)(C)c1nc(-c2cccc(NS(=O)(=O)c3c(F)cccc3F)c2F)c(-c2ccnc(N)n2)s1 [Dabrafenib],associated with drug response,
CCCS(=O)(=O)Nc1ccc(F)c(C(=O)c2c[nH]c3ncc(Cl)cc23)c1F [PLX4720],,distinct low IC50
